# Where two headings read alike, the source gives them in different places.
# Experiments:
# CYP 3A4 = biological target: T1, CYP 3A4 (Homo sapiens, UniProt P08684); experiment: CYP 3A4 time-dependent inhibition test; type: in vitro ADME; conditions: midazolam substrate
# T1 construct: purchased BioIVT X008067
# Procedure: CYP 3A4 and the test compound or mifepristone of various concentrations were added to a 96-deep well plate for pre-incubation. The plate was placed in a water bath and preheated at 37° C. for 5 min. For the 0 min pre-incubation samples, midazolam substrate was added to the incubation plate, then 10 mM NADPH solution was added, and the reaction was carried out in a 37° C. water bath for 5 min; for the 30 min pre-incubation samples with NADPH, 10 mM NADPH solution was added to the incubation plate, pre-incubated in a 37° C. water bath for 30 min, and then midazolam substrate was added and reacted in a 37° C. water bath for 5 min; for the 30 min pre-incubation samples without NADPH, the incubation plate was pre-incubated in a 37° C. water bath for 30 min, then midazolam substrate was added, 10 mM NADPH solution was added, and the reaction was carried out in a 37° C. water bath for 5 min. After the reaction was completed, the quenching solution (500 nM tolbutamide (Bide Pharmaceuticals, Cat. No. BD154332) and 10 nM terfenadine (Sigma, Cat. No. T96532)) were added to quench the reaction, and the plate was centrifuged at 3,220 g for 40 min at 4° C. The supernatant was pipetted into a new plate, the supernatant was diluted with pure water and mixed well, and the sample was analyzed using UPLC-MS/MS.
# [1] = Liver microsome stability test, human (HLM); type: in vitro ADME; conditions: human liver microsomes, NADPH; read-out: T1/2 (min) Human
# Procedure: The 10 mM test compound/ketanserin (Energy Chemical, Cat. No. E020711) stock solution was diluted with acetonitrile to 0.5 mM compound/reference compound. The frozen 100 mM NADPH (MCE, Cat. No. HYF003/CS-4998) was diluted with phosphate buffer solution to a concentration of 6 mM; 20 mg/mL HLM (BioIVT, Cat. No. X008067) or MLM (BioIVT, Cat. No. M00501) was diluted with phosphate buffer solution to a concentration of 0.75 mg/ml, and added to a 96-round well plate, respectively, and shaken evenly on an oscillator at 600 rpm. The above oscillated samples were pipetted 3 times with an electric pipettor and dispensed into a new 96-well plate (containing NADPH group (n=2), NADPH-free group was added at 0 and 45 min (n=1)), and there were a total of 5 groups of 0, 5, 15, 30 and 45 min, respectively. After pre-incubation of the 5 groups of samples at 37° C. for 5 min, glacial acetonitrile was quickly added to the 0 min group for precipitation, and after rapid vortexing, K-Buffer or NADPH was added with an electric pipettor. The remaining groups were sequentially added with 6 mM NADPH to start the reaction in the order of 45, 30, 15 and 5 min samples, and K-Buffer solution was added to the NADPH-free group. After mixing at 1000 rpm in an oscillating mixer for 10 s, they were continuously incubated at 37° C. for the corresponding time. The reaction was terminated by quickly adding glacial acetonitrile internal standard using an electric pipettor; after vortexing at 900 rpm for 10 seconds, heat sealing was performed, oscillation was performed on an oscillator for 10 minutes, centrifugation was performed at 4000 rpm for 50 minutes, the supernatant was collected and diluted with pure water, and the test compound and the reference compound were quantified by LC-MS/MS analysis.
# [2] = 0 min pre-incubation, read-out: IC50 (μM) 0 min
# [3] = 30 min pre-incubation with NADPH, read-out: IC50 (μM) 30 min, with NADPH
# [4] = 30 min pre-incubation without NADPH, read-out: IC50 (μM) 30 min, without NADPH
# T1 sequence (P08684 whole entry): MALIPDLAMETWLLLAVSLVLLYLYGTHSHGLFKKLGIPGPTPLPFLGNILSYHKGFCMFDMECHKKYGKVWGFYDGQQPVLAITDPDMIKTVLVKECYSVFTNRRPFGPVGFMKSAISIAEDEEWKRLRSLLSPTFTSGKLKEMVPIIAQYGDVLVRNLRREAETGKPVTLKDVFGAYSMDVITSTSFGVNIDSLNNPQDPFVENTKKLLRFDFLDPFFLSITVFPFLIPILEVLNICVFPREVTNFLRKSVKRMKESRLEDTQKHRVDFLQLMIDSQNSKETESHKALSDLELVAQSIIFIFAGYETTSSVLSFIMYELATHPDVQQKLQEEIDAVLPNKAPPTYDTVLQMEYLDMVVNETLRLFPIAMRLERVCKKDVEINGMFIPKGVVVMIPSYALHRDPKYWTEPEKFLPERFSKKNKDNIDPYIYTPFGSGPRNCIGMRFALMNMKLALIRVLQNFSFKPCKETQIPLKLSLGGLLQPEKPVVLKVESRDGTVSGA
SMILES,IC50 (CYP 3A4; [2]) [µM],IC50 (CYP 3A4; [3]) [µM],IC50 (CYP 3A4; [4]) [µM],half-life [1] [min]
"[2H]C([2H])([2H])NC(=O)c1ccc(NCC#Cc2cc3c(NC4CCC(N5CC6(COC6)C5)CC4F)cccn3c2CC(F)(F)F)c(OC([2H])([2H])[2H])c1 (single isomer, unassigned) [Compound 74d]",4.55,1.56,5.91,55.8
CNC(=O)c1ccc(NCC#Cc2nc3c(NC4CC[C@@H](N5CC6(COC6)C5)C[C@@H]4F)cccn3c2CC(F)(F)F)c(OCF)c1 (stereo partly shown) [Compound 58],–,–,–,37.5
COc1cc(C(=O)NC2CC2)ccc1NCC#Cc1nc2c(NC3CC[C@@H](N4CC5(COC5)C4)C[C@@H]3F)cccn2c1CC(F)(F)F (stereo partly shown) [Compound 54],–,–,–,32
"CNC(=O)c1ccc(NCC#Cc2nc3c(NC4CCC(N5CC6(COC6)C5)CC4F)cccn3c2CC(F)(F)F)c(OC)c1 (single isomer, unassigned) [Compound 35-6i]",7.48,3.01,7.46,–
CNC(=O)c1ccc(NCC#Cc2nc3c(N[C@@H]4CCN(C)C[C@@H]4F)cccn3c2CC(F)(F)F)c(OC)c1 [Compound 5],8.05,1.89,8.36,–
[2H]C([2H])([2H])NC(=O)c1ccc(NCC#Cc2nc3c(NC4CC[C@@H](N5CC6(COC6)C5)C[C@@H]4F)cccn3c2CC(F)(F)F)c(OC([2H])([2H])[2H])c1 (stereo partly shown) [Compound 64],–,–,–,44

# Reference: patent US20260132128A1, “COMPOUND FOR RECOVERING P53 MUTATION FUNCTION AND USE THEREOF” (SHENZHEN ZHONGGE BIOLOGICAL TECHNOLOGY CO., LTD., priority 2022, published 2026)
